One series has as its system MTAP-negative cell lines. In words: Applicants' tissue culture experiments on MTAP-negative cell lines (summary statements). It counts as cell-based, human; mouse. The conditions noted are these: L1210, HL-60, K-562, MCF7, MDA-MB-231, A549, PANC-1.
The test system of the next series is MTAP(−) HL-60 cells. In words: Coulter counts of HL-60 suspension cultures. It counts as cell-based. The conditions noted are these: Example 13. As to the method:
(§1) For cell types that grow in suspension (e.g., ML-1, HL-60, K-562) medium was RPMI-1640 with 10% FBS (undialyzed).
(§2) For adherent cell types, cell numbers were determined periodically by releasing cells with trypsin (dead cells that were no longer adherent were removed by two prior rinses of the culture dish) and placing a portion of the resulting cell suspension in a Coulter counter. For cell types that grow in suspension, portions of the culture were counted directly, without trypsin treatment. Coulter counts of cells from each dish were done twice, and almost all experiments were done in duplicate. In the presentation of results, raw data for Coulter counts is given in some cases, while in others, counts have been rounded off to two to three significant figures. (Background Coulter counts—i.e., counts of diluent alone—were insignificant.)
(§3) For cells that grow in suspension, the effect of treatments was assessed solely by changes in Coulter count.
• HL-60 cells were grown in RPMI 1640 with 10% FBS. 5′-dAdo, adenine, or neither were added, and after 3 hours, 5-fluorouracil (FU) was added to selected dishes. Six days later, cell numbers were assessed in a Coulter counter. • Initial cell number/ml: 8,160

For series [1], the system named is MTAP(+) HF cells. In words: Coculture of HF and A549-ouaR cells, clonogenic assay. The conditions noted are these: addition of 5′-dAdo to DAP. It counts as cell-based, human. As to the method: (§4) Cell viability of adherent cell types was measured by clonogenic assay as follows: after releasing cells with trypsin and removing a portion of the cell suspension for Coulter counting, the remainder of the cell suspension was plated in serial dilutions in growth medium, without drugs. After a period sufficient for clones to reach a size visible by eye (usually 2 to 3 weeks), clones were stained with crystal violet in a saline/methanol solution. Dishes that had fewer than 100 clones were deemed suitable for counting. From these counts and from the dilution factors, the approximate number of viable cells, in the parent treatment dishes, was calculated. […] In clonogenic assays, clone size was often variable, especially after treatment with toxic drugs. Moreover, many of the very small clones may have arisen from cells detached during the weeks of incubation. […] Cloning efficiency for healthy, growing A549 cells was about 50%; for HF cells, efficiency was quite variable, ranging from 25 to 75% (perhaps because the HF cell stock varied, from experiment to experiment, in passage number).
HF and A549-ouaR (a ouabain-resistant derivative of the human lung carcinoma cell line A549, isolated by Applicants) cells were cultured together in a medium containing DAP, and with or without 5′-dAdo. After 3 days, cultures were trypsinized and serially diluted into fresh medium for clonogenic assays. Some dishes were treated with 0.1 μM ouabain to kill HF cells and permit easy visualization of surviving A549-ouaR clones. Initial viable cells: HF cells, 11,000; A549-ouaR cells, 40,000.

For another series, the system named is MTAP(−) A549 cells. In words: Clonogenic assay of A549 cells. It counts as cell-based, human. The protocol: as §4
A549 cells were incubated for 4 days with additions shown below, and viable cells measured by clonogenic assay. (Results shown are approximate; see Methods) Cell count in dish at start: 40,000
• MTAP(−) A549 lung tumor cell cultures were treated with F-Ade, with or without MTA, 5′-dAdo, or adenine (Ade), for three days. Coulter counts of cells, and viable cells as determined by clonogenic assay, are shown below: • Initial cell number: 10,340*
• A549 cell cultures were treated with DAP, with or without 5′-dAdo or adenine, for three days. After trypsinization, one-fourth of the cell suspension was counted, and raw data is shown below, with duplicate counts for each sample. The cell suspension was also serially diluted for clonogenic assay. • Counts at start of experiment: Dish one: 36,480; 39,160; Dish two: 52,680; 51,360. • Initial viable cells by clonogenic assay: 180,000.
• Cell cultures were treated with MTX or alanosine for one day. DAP was then added and 3 days later, cells were trypsinized and serially diluted for clonogenic assay. Results are shown below: • Initial viable cells: 146,000
• A549 cells were plated, and after they had adhered to the substrate, medium was changed to methionine-free medium with 10% dialyzed serum. L-ethionine (Eth) and MTA were added, and after 4 days, cell cultures were trypsinized and serially diluted for clonogenic assay. • Initial number of viable cells: 160,000*
• A549 cultures were treated with 6-thioguanine (TG) or 2,6,diaminopurine (DAP), or both, for 3 days. • Initial viable cells: 275,000 • After 3 days: […]

Series [2] relates to MTAP(+) HF cells. In words: Clonogenic assay of HF cells. The format is cell-based, human. The conditions noted are these: 30 μM 5′-dAdo, 2 μM F-Ade, 3 days. The protocol: as §4
• B. F-Ade was added to cultures of MTAP(+) HF cells, with or without 5′-dAdo, for 3 days. Cultures were then trypsinized and serially diluted for clonogenic assay. • Initial number of viable cells per dish: 45,000 • Viable cells after 3 days shown below:
• HF cells were plated, and after they had adhered to the substrate, medium was changed to methionine-free medium, with 10% dialyzed serum. • Initial Coulter count: 73,000*; viable cells: 88,000 • After 3 days in methionine-free medium, with or without L-ethionine (Eth) or MTA: […]

Series [3] relates to MTAP-positive cells and cells lines. In words: Applicants' tissue culture experiments on protection of MTAP-positive cells (summary statements). It counts as cell-based, human; mouse.
The test system of series [4] is MTAP(+) HT29 colon carcinoma cells. Description: Coulter counts of HT29 cultures. It counts as cell-based, human. The conditions noted are these: Example 12. As to the method:
as §2
• 5′-dAdo was added to cultures of MTAP(+) HT29 colon carcinoma cells for one day. 5-fluorouracil (FU) was then added and 4 days later cultures were trypsinized, thoroughly dispersed into mostly single cells by vigorous pipetting, and counted. • Initial Coulter count at time of addition of FU: 46,000

The test system of a further series is MTAP(+) ML-1 cells. Description: Coulter counts of ML-1 suspension cultures. The format is cell-based. The protocol: as §1, §2, §3
• ML-1 cells were incubated in RPMI 1640 with 10% FBS with 5′-dAdo (60 μM) for 6 hours. 5-fluorouracil (FU), 6-thioguanine (TG), or 2,6-diaminopurine (DAP) were then added, and after 2 additional days, 0.5 ml was taken for Coulter counts. Initial Coulter count/ml: 308,000

On to `C[C@H]1O[C@@H](n2cnc3c(N)ncnc32)[C@H](O)[C@@H]1O` [5′-dAdo, 5′-deoxyadenosine], for which the “protection against the toxicity of adenine and/or methionine antagonists” value with MTAP-negative cell lines is “inability”. The “protection of HL-60 cells from FU toxicity” value in the series with MTAP(−) HL-60 cells is reported as “not protected”. Further, the “protection of HF cells from DAP in coculture” value with MTAP(+) HF cells [1] is listed as “protected”. For the same compound, the “blocking of MeP toxicity in A549 cells” value with MTAP(−) A549 cells (10 μM MeP) is “not”. Also, the “blocking of DAP toxicity in A549 cells” value in the series with MTAP(−) A549 cells (100 μM DAP, Example 7) is listed as “did not block”. In the series with MTAP(−) A549 cells (1 to 2 μM F-Ade), the “blocking of F-Ade toxicity in A549 cells” value is on record as “not”. Besides, the “blocking of F-Ade toxicity in HF cells” value in the series with MTAP(+) HF cells [2] is listed as “effectively blocks”. Besides, the “protection from highly toxic doses of adenine and/or methionine competitive antagonists” value in series [3] (HF, mouse hematopoietic progenitors, HT-29, ML-1, EJ, T-47D, ZR-75-1, MDA-MB-468) is listed as “provide protection”. Further, the “blocking of toxicity of very high doses of 2,6-diaminopurine, 2-fluoroadenine, 6-methylpurine” value in series [3] (normal human and mouse cells) is “effectively blocked”. For the same compound, the “blocking of FU toxicity in MTAP(+) HT29 cells” value in series [4] is on record as “blocked”. Also, in the series on MTAP(+) ML-1 cells (5′-dAdo 60 μM for 6 hours, then 2 days with FU 3 μM, TG 20 μM, DAP 50 μM where present, initial Coulter count/ml 308,000), the “Increase in cell number/ml, 60 μM 5′-dAdo” value is recorded as 918,000 /ml. In addition, the “protection against growth inhibition caused by FU, TG and DAP, individually and in combination” value with MTAP(+) ML-1 cells (Example 14) is “effectively protected”.

For the origin of these results see patent US8796241B2, “Therapy of tumors and infectious agents deficient in methylthioadenosine phosphorylase” (priority 2007, dated 2014).
